The target of one assay is T1, PAF receptor (Oryctolagus cuniculus, UniProt G1TEI7).
T1 construct: platelet membranes where prepared by centrifugation and washing; tissue Pel-Freez (Rogers, AR) (whole rabbit blood); host or cells: rabbit platelet membranes
T1 sequence (G1TEI7 1-342): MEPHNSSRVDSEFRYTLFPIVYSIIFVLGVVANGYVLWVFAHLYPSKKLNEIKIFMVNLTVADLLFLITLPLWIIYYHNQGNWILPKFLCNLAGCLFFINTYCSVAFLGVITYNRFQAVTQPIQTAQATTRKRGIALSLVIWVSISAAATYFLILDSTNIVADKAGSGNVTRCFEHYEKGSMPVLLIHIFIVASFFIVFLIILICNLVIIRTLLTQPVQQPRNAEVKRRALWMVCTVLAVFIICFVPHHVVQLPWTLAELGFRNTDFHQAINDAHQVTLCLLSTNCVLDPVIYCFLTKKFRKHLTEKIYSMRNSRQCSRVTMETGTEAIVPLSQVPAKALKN
Briefly: PAF receptor binding assay ([3H]C18-PAF, rabbit platelet membranes). The settings on record: inhibition of specific binding of 0.6 nM [3H]C18-PAF to rabbit platelet membranes, 60 min, room temperature; Ki calculated from IC50 by Cheng and Prusoff; read-out: PAF Receptor Binding Activity K1. How it is done: The ability of representative compounds of the present invention to inhibit PAF activity was determined in an in vitro test using the following method.
Citrated whole rabbit blood was obtained from Pel-Freez (Rogers, AR). Rabbit platelets where prepared by centrifugation and washing. The platelets where lysed by freeze-thawing and sonication; platelet membranes where prepared by centrifugation and washing. Final membrane preparations where stored frozen in 10 mM Tris/5 mM MgCl2 /2 mM EDTA (TME buffer, pH 7.0) with 0.25 M sucrose added for membrane stabilization.
The final volume of the assay was 100 μl. The assay was conducted in Millititre-GV™ (Millipore Corp.) filtration plates; incubation time was for 60 minutes at room temperature (22°-23° C.). "Specific binding" was operationally defined as the arithmetic difference between "total binding" of 0.6 nM [^3 H]C18 -PAF (in the absence of added PAF) and "nonspecific binding" (in the presence of 1 μM PAF). After the prescribed incubation, platelet membranes where filtered under vacuum and washed with 1 millilitre of "binding buffer". The filters was dried and removed. The bound radioactivity was quantitated with a Berthold TLC-Linear Analyzer model LB2842.
Experiments where repeated at least once.
Regarding “3(1-Carbamoylamino-pyridin-3-yl)-7-[1-N,N-dimethylcarbamoyl-6-(4-fluorophenyl)indol-3-ylcarbonyl]-1H,3H-pyrrolo[1,2-c]thiazole [Example 77]”, the Ki was 100 nM.

On to “3-(Pyridin-3-yl)-7-[1-N-sulfoethylcarbamoyl-6-(4-fluorophenyl)indol- 3-ylcarbonyl]-1H,3H-pyrrolo[1,2-c]thiazole [Example 100]”, for which the Ki was over 300 nM.

For the molecule “3-[Pyridin-3-yl)-7-(6-pyrimid-2-ylindol-3-ylcarbonyl)-1H,3H-pyrrolo[1,2-c]thiazole [Example 74]”, the Ki was 84 nM.

The assay is the same for the next values; noted with them: read-out: PAF Receptor Binding Activity K1.
As to `CN(C)C(=O)n1cc(C(=O)c2ccn3c2CSC3c2cccnc2)c2ccccc21` (centres unmarked) [Example 2, 3-(Pyridin-3-yl)-7-(1-N,N-dimethylcarbamoylindol-3-yl)carbonyl-1H,3H-pyrrolo[1,2-c]thiazole], the Ki came out at 2000 nM.

As to `O=C(c1ccn2c1CSC2c1cccnc1)c1c[nH]c2ccc(OCc3ccccc3)cc12` (centres unmarked) [Example 3, 3-(Pyridin-3-yl)-7-(5-phenylmethoxyindol-3-yl)carbonyl-1H,3H-pyrrolo[1,2-c]thiazole], the Ki stood at 180 nM.

For the molecule `O=C(c1ccn2c1CSC2c1cccnc1)c1c[nH]c2cc(OCc3ccccc3)ccc12` (centres unmarked) [Example 4, 3-(Pyridin-3-yl)-7-(6-phenylmethoxyindol-3-yl)carbonyl-1H,3H-pyrrolo[1,2-c]thiazole], the Ki was 64 nM.

For `O=C(c1ccn2c1CSC2c1cccnc1)c1c[nH]c2c(OCc3ccccc3)cccc12` (centres unmarked) [Example 5, 3(Pyridin-3-yl)-7-(7-phenylmethoxyindol-3-yl)carbonyl-1H,3H-pyrrolo[1,2-c]thiazole], the Ki amounted to 90 nM.

As for `CN(C)C(=O)n1cc(C(=O)c2ccn3c2CSC3c2cccnc2)c2cc(OCc3ccccc3)ccc21` (centres unmarked) [Example 6, 3-(Pyridin-3-yl)-7-(N,N-dimethylcarbamoyl-5-phenylmethoxyindol-3-yl)carbonyl-1H,3H-pyrrolo[1,2-c]thiazole], the Ki stood at 120 nM.

For the molecule `CN(C)C(=O)n1cc(C(=O)c2ccn3c2CSC3c2cccnc2)c2ccc(OCc3ccccc3)cc21` (centres unmarked) [Example 7, 3-(Pyridin-3-yl)-7-(1-N,N-dimethylcarbamoyl-6-phenylmethoxyindol-3-yl)carbonyl-1H,3H-pyrrolo[1,2-c]thiazole], the Ki is 17 nM.

As to `CC(C)(C)OC(=O)n1cc(C(=O)c2ccn3c2CSC3c2cccnc2)c2ccccc21` (centres unmarked) [Example 9, 3-(Pyridin-3-yl)-7-(1-tert-butyloxycarbonylindol-3-yl)carbonyl-1H,3H-pyrrolo[1,2-c]thiazole], the Ki was determined as 110 nM.

`O=C(c1ccn2c1CSC2c1cccnc1)c1c[nH]c2cc(-c3ccccc3)ccc12` (centres unmarked) [Example 10, 3-(Pyridin-3-yl)-7-(6-phenylindol-3-yl)carbonyl-1H,3H-pyrrolo[1,2-c]thiazole]: the Ki came to 95 nM.

In the case of `O=C(c1ccn2c1CSC2c1cccnc1)c1cn(C(=O)N2CCOCC2)c2ccccc12` (centres unmarked) [Example 11, 3-(Pyridin-3-yl)-7-[1-(morpholin-4-ylcarbonyl)indol-3-yl]carbonyl-1H,3H-pyrrolo[1,2-c]thiazole], the Ki came to 225 nM.

Consider `CN(C)C(=O)n1cc(C(=O)c2ccn3c2CSC3c2cccnc2)c2ccc(-c3ccccc3)cc21` (centres unmarked) [Example 12, 3-(Pyridin-3-yl)-7-(1-N,N-dimethylcarbamoyl-6-phenylindol-3-yl)carbonyl-1H,3H-pyrrolo[1,2-c]thiazole], for which the Ki worked out at 23 nM.

With `CC(C)(C)OC(=O)n1cc(C(=O)c2ccn3c2C[S+]([O-])C3c2cccnc2)c2ccccc21` (centres unmarked) [Example 13, 2-Oxide-3-(pyridin-3-yl)-7-(1-tert-butyloxycarbonylindol-3-ylcarbonyl)-1H,3H-pyrrolo[1,2-c]thiazole], the Ki came to 2200 nM.

With `O=C(c1ccn2c1C[S+]([O-])C2c1cccnc1)c1c[nH]c2ccccc12` (centres unmarked) [Example 14, 2-Oxide-3-(pyridin-3-yl)-7-(indol-3-ylcarbonyl)-1H,3H-pyrrolo[1,2-c]thiazole], the Ki stood at 2400 nM.

`O=C(c1ccn2c1COC2c1cccnc1)c1c[nH]c2ccccc12` (centres unmarked) [Example 15, 3-(Pyridin-3-yl)-7-(indol-3-ylcarbonyl)-1H,3H-pyrrolo[1,2-c]oxazole]: the Ki was 5600 nM.

`CC(C)N(C(=O)n1cc(C(=O)c2ccn3c2CSC3c2cccnc2)c2ccc(OCc3ccccc3)cc21)C(C)C` (centres unmarked) [Example 16, 3-(Pyridin-3-yl)-7-(1-N,N-diisopropylcarbamoyl-6-phenylmethoxyindol-3-ylcarbonyl)-1H,3H-pyrrolo[1,2-c]thiazole]: the Ki worked out at 85 nM.

On to `CC1(C)SC(c2cccnc2)n2ccc(C(=O)c3c[nH]c4ccccc34)c21` (centres unmarked) [Example 17, 1,1-Dimethyl-3-(pyridin-3-yl)-7-(indol-3-ylcarbonyl)-1H,3H-pyrrolo[1,2-c]thiazole], for which the Ki was found to be 1200 nM.

Take `COC(=O)n1cc(C(=O)c2ccn3c2CSC3c2cccnc2)c2ccc(OCc3ccccc3)cc21` (centres unmarked) [Example 18]: the Ki was 35 nM.

Take `CN(C)C(=O)n1cc(C(=O)c2ccn3c2C(C)(C)SC3c2cccnc2)c2ccccc21` (centres unmarked) [Example 19, 1,1-Dimethyl-3-(pyridin-3-yl)-7-(1-N,N-dimethylcarbamoyl-indol-3-ylcarbonyl)-1H,3H-pyrrolo[1,2-c]thiazole]: the Ki is 100 nM.

Turning to `CN(C(=O)n1cc(C(=O)c2ccn3c2CSC3c2cccnc2)c2ccc(OCc3ccccc3)cc21)c1ccccc1` (centres unmarked) [Example 20, 3-(Pyridin-3-yl)-7-(1-N-methyl-N-phenylcarbamoyl-6-phenylmethoxyindol-3-ylcarbonyl)-1H,3H-pyrrolo[1,2-c]thiazole], the Ki turned out to be 180 nM.

In the case of `Cn1cc(C(=O)c2ccn3c2CSC3c2cccnc2)c2ccc(OCc3ccccc3)cc21` (centres unmarked) [Example 21, 3-(Pyridin-3-yl)-7-(1-methyl-6-phenylmethoxyindol-3-ylcarbonyl)-1H,3H-pyrrolo[1,2-c]thiazole], the Ki was 15 nM.

Turning to `CNC(=O)n1cc(C(=O)c2ccn3c2CSC3c2cccnc2)c2ccc(OCc3ccccc3)cc21` (centres unmarked) [Example 22, 3-(Pyridin-3-yl)-7-(1-N-methylcarbamoyl-6-phenylmethoxyindol-3-ylcarbonyl)-1H,3H-pyrrolo[1,2-c]thiazole], the Ki turned out to be 9 nM.

On to `CN(C)C(=O)n1cc(C(=O)c2ccn3c2C[S+]([O-])C3c2cccnc2)c2ccc(-c3ccccc3)cc21` (centres unmarked) [Example 23, 2-Oxide-3-(pyridin-3-yl)-7-(1-N,N-dimethylcarbamoyl-6-phenyllindol-3-ylcarbonyl)-1H,3H-pyrrolo[1,2-c]thiazole], for which the Ki was 95 nM.

Turning to `CN(C)C(=O)n1cc(C(=O)c2ccn3c2C(C)(C)SC3c2cccnc2)c2ccc(-c3ccccc3)cc21` (centres unmarked) [Example 24, 1,1-Dimethyl-3-(pyridin-3-yl)-7-(1-N,N-dimethylcarbamoyl-6-phenylindol-3-ylcarbonyl)-1H,3H-pyrrolo[1,2-c]thiazole], the Ki turned out to be 51 nM.

With `COc1ccc(-c2ccc3c(C(=O)c4ccn5c4C(C)(C)SC5c4cccnc4)c[nH]c3c2)cc1` (centres unmarked) [Example 25, 1,1-Dimethyl-3-(pyridin-3-yl)-7-[6-(4-methoxyphenyl)indol-3-ylcarbonyl]-1H,3H-pyrrolo[1,2-c]thiazole], the Ki is 272 nM.

`COc1ccc(-c2ccc3c(C(=O)c4ccn5c4C(C)(C)SC5c4cccnc4)cn(C(=O)N(C)C)c3c2)cc1` (centres unmarked) [Example 26, 1,1-Dimethyl-3-Dimethyl-3-(pyridin-3-yl)-7-[1-N,N-dimethylcarbamoyl-6-(4-methoxyphenyl)indol-3-ylcarbonyl]-1H,3H-pyrrolo[1,2-c]thiazole]: the Ki came out at 55 nM.

Consider `O=C(c1ccn2c1CSC2c1cccnc1)c1cn(C(=O)Oc2ccccc2)c2cc(OCc3ccccc3)ccc12` (centres unmarked) [Example 27, 3-[Pyridin-3-yl)-7-(1-carbophenoxy-6-phenylmethoxyindol-3-ylcarbonyl)-1H,3H-pyrrolo[1,2-c]thiazole], for which the Ki amounted to 200 nM.

Consider `O=C(c1ccn2c1CSC2c1cccnc1)c1c[nH]c2cc(-c3ccc(F)cc3)ccc12` (centres unmarked) [Example 28, 3-(Pyridin-3-yl)-7-[6-(4-fluorophenyl)indol-3-ylcarbonyl]-1H,3H-pyrrolo[1,2-c]thiazole], for which the Ki was 75 nM.

With `CNC(=O)n1cc(C(=O)c2ccn3c2CSC3c2cccnc2)c2ccc(-c3ccccc3)cc21` (centres unmarked) [Example 30, 3-(Pyridin-3-yl)-7-(1-N-methylcarbamoyl-6-phenylindol-3-ylcarbonyl)-1H,3H-pyrrolo[1,2-c]thiazole], the Ki was 135 nM.

Take `CNC(=O)n1cc(C(=O)c2ccn3c2C(C)(C)SC3c2cccnc2)c2ccc(-c3ccc(OC)cc3)cc21` (centres unmarked) [Example 32, 1,1-Dimethyl-3-(pyridin-3-yl)-7-[1-N-methylcarbamoyl-6-(4-methoxyphenyl)indol-3-ylcarbonyl]-1H,3H-pyrrolo[1,2-c]thiazole]: the Ki worked out at 150 nM.

For `CN(C)C(=O)n1cc(C(=O)c2ccn3c2CSC3c2ccc[n+](C)c2)c2ccc(-c3ccccc3)cc21` (centres unmarked) [Example 33, 3-(1-methylpyridin-3-yl)-7-(1-N,N-dimethylcarbamoyl-6-phenylindol-3-ylcarbonyl)-1H,3H-pyrrolo[1,2-c]thiazole], the Ki was 2800 nM.

(Values after US5459152A, “Platelet activating factor antagonists” (Abbott Laboratories, priority 1993, dated 1995).)
